Test results taken from publication PMC9952496, “A Novel Strategy for the Design of Aurein 1.2 Analogs with Enhanced Bioactivities by Conjunction of Cell-Penetrating Regions” (Antibiotics, 2023).
Like-named read-outs stand apart in the source and are kept apart here. Residues, ends and D or L forms follow the SMILES beside them.

Experiments:
[1] = tested on: MCF-7 breast cancer cell line; assay type: cell-based, human
Description: (§1) The MTT test measures the anti-proliferation of the peptide by measuring MTT conversion by live cells into a formazan that cannot be dissolved in water. In this section, three cancer cell lines: human non-small-cell lung cancer cell line, NCI-H838 (ATCC-CRL-5844); human glioblastoma astrocytoma cell line, U251MG (ECACC-09063001) and human breast cancer cell line, MCF-7 (ATCC-HTB-22), were selected for the anti-proliferation study. H838 cells were cultured in Roswell Park Memorial Institute (RPMI)-1640 medium (Life Technologies, Paisley, UK) mixed with 10% (v/v) fetal bovine serum (FBS) and 1% penicillin-streptomycin (Gibco, 10,000 U/mL). U251MG and MCF-7 cells were cultured in Dulbecco’s Modified Eagle medium (DMEM) (Life Technologies, Carlsbad, CA) mixed with 10% (v/v) FBS and 1% penicillin–streptomycin (Gibco, 10,000 U/mL). The cancer cells were first seeded into the 96-well plates at a cell density of 8000 per well for 20–24 h at 37 °C. Then, the cells were starved by switching the FBS containing complete growth medium to FBS lacking serum-free medium for 4 h. Peptides were dissolved to a series of final concentrations from 10^−9 to 10^−4 M in ddH2O. After starvation, 1 μL of the peptide with 99 μL of the serum-free medium was added to the plate and then cultured for 20–24 h.; 10 µL of MTT (3-(4,5-dimethylthiazol-2-yl)-2,5-diphenyltetrazolium bromide, 5 mg/mL, Sigma, UK) were loaded into each well in the dark and incubated at 37 °C. Subsequently, the liquid in each well was removed completely before […] of DMSO was added to each well to dissolve the formazan. The plate was read at 570 nm using a Synergy HT plate reader.

[2] = tested on: U251MG glioblastoma astrocytoma cell line; assay type: cell-based, human
Description: as §1

[3] = tested on: NCI-H838 non-small-cell lung cancer cell line; assay type: cell-based, human
Description: as §1

E. faecalis (NCTC 12697) = assay type: cell-based; conditions: for MIC: NCTC 12697; for MBC: NCTC 12697, 20 h
Description: (§2) The antimicrobial activity evaluation was conducted by use of MIC and MBC assays, using three Gram-positive bacteria and three Gram-negative bacteria. The peptides were dissolved in dimethyl sulfoxide (DMSO) for a final concentration series from 1 to 128 µM; 20 µmol of norfloxacin was applied as the positive control, and one µL of DMSO was used as the negative control. The bacteria were inoculated in the corresponding cultural media overnight and subcultured to the desired OD value (OD = 0.23 for Gram-positive bacteria, OD = 0.4 for Gram-negative bacteria corresponding to 5 × 10^5 CFU/mL); 20 mL of culture broth and 100 µL of subcultured bacteria were mixed before being loaded onto the plate, and 1 µL of the peptide cocktail was mixed with 99 µL of diluted bacteria in 96 wells plates and then was incubated for 20 to 24 h at 37 °C. Afterward, the OD value (λ = 550 nm) of each well was detected using a Synergy HT plate reader (Biotech, Minneapolis, MN, USA). The MIC value was the lowest concentration without bacterial growth visually. Subsequently, 10 µL of the solution in each clear well was loaded onto an agar plate and cultured for 20 h. The lowest concentration without colony growth was regarded as the MBC.

MRSA (ATCC 12493) = assay type: cell-based; conditions: for MIC: ATCC 12493; for MBC: ATCC 12493, 20 h
Description: as §2

E. coli (NCTC 8739) = assay type: cell-based; conditions: for MIC: NCTC 8739; for MBC: NCTC 8739, 20 h
Description: as §2

[4] = tested on: P. aeruginosa (ATCC 9027); assay type: cell-based; conditions: for MIC: ATCC 9027; for MBC: ATCC 9027, 20 h
Description: as §2

[5] = tested on: S. aureus (ATCC CRM 6538); assay type: cell-based; conditions: for MIC: ATCC CRM 6538; for MBC: ATCC CRM 6538, 20 h
Description: as §2

[6] = tested on: K. pneumoniae (ATCC 43816); assay type: cell-based; conditions: for MIC: ATCC 43816; for MBC: ATCC 43816, 20 h
Description: as §2

[7] = tested on: Gram-positive bacteria biofilm; assay type: cell-based; conditions: range over Gram-positive bacteria
Description: (§3) The minimum biofilm inhibition and minimum biofilm eradication concentrations were obtained by use of the MBIC and MBEC assays. The anti-biofilm activity of the peptides was evaluated by use of S. aureus (ATCC 6538), MRSA (NCTC 12493), E. faecalis (NCTC 12493), E. coli (ATCC CRM 8739), K. pneumoniae (ATCC43816), and P. aeruginosa (ATCC CRM 9027).
(§4) For the MBIC assay, the bacteria were cultured in tryptic soy broth (TSB) broth with 1% glucose for Gram-positive bacteria biofilm and Luria Bertani (LB) broth with 1% glucose for Gram-negative bacteria biofilm. Bacteria were inoculated, subcultured, and diluted in the same method described before. The peptides were prepared in a concentration of 1–128 µM; 1 µL of peptide and 99 µL of subcultured bacteria were mixed in 96 well plates and cultured at 37 °C with a shear force of 200 rpm in a humid environment for 20–24 h. Then, the plate was washed with 130 µL of PBS twice, and 130 µL of methanol was added to stabilize the biofilm overnight; then, the plate was dyed with 100 mL of 0.5% crystal violet for 15 min. The stained biofilm was then washed once more and allowed to dry overnight. The stain was dissolved in acetic acid at a 30% concentration, and it was shaken for 15 min to ensure homogeneity. A Synergy HT plate reader was then used to read the plate at 595 nm. […]

horse erythrocytes [8] = experiment: Haemolytic activity evaluation; conditions: at the peptide's MIC value for E. coli; horse erythrocytes in PBS, 2 h at 37 °C, absorbance 490 nm, Triton X-100 positive control, n = 9; listed as KIL-1
Description: (§5) The hemolytic activity of the peptides on mammalian erythrocytes was examined using 2% defibrinated horse blood (TCS Biosciences Ltd., Buckinghamshire, UK). Firstly, the defibrinated horse blood was washed; 2 mL of horse blood was added into a 50 mL tube; then, 30 mL of sterilized PBS was added dropwise into the tube, and the tube was mixed in a shaking bed and then centrifuged at 930× g for 10 min. The procedure was repeated until the supernatant of the centrifuge tube was clear. Afterward, the blood cell pellet was dispersed to make a 4% suspension (v/v) by adding 50 mL of sterilized PBS. Peptides were dissolved using PBS to achieve final concentrations of 1–128 μM and then mixed with the blood cell suspensions in 1.5-mL tubes. The blood cell suspensions treated with 0.1% Triton X-100 and PBS were used as positive controls and negative controls, respectively. Then the peptide-blood mixture was incubated at 37 °C degrees for 2 h in an incubator. After incubation, the tubes were centrifuged at 930× g for 10 min, and 100 µL of the supernatants were loaded into wells of the 96-well plates. The absorbance was obtained by Synergy HT plate reader at 490 nm. The hemolytic activity was calculated using the formula, hemolysis = (absorbance of experimental groups − absorbance of negative control))/(absorbance of positive control − absorbance of negative control) × 100%.

horse erythrocytes [9] = conditions: red cells of horse, 2 h
Description: as §5

Gram-positive bacteria = experiment: MIC assay, summary over Gram-positive bacteria; assay type: cell-based; conditions: range over three Gram-positive bacteria
Description: as §2

[10] = tested on: Gram-negative bacteria biofilm; conditions: range over Gram-negative bacteria
Description: as §3, §4

| SMILES | IC50 [1] [µM] | IC50 [2] [µM] | IC50 [3] [µM] | MIC (E. faecalis (NCTC 12697)) [µM] | MBC (E. faecalis (NCTC 12697)) [µM] | MIC (MRSA (ATCC 12493)) [µM] | MBC (MRSA (ATCC 12493)) [µM] | MIC (E. coli (NCTC 8739)) [µM] | MBC (E. coli (NCTC 8739)) [µM] | MIC [4] [µM] | MBC [4] [µM] | MIC [5] [µM] | MBC [5] | MIC [6] [µM] | MBC [6] [µM] | other results |
| --- | --- | --- | --- | --- | --- | --- | --- | --- | --- | --- | --- | --- | --- | --- | --- | --- |
| CC[C@H](C)[C@H](NC(=O)[C@H](CCCCN)NC(=O)[C@H](CCCCN)NC(=O)[C@@H](NC(=O)[C@@H](NC(=O)[C@H](CCCCN)NC(=O)[C@H](CCCCN)NC(=O)[C@@H](NC(=O)[C@@H](NC(=O)[C@H](CC(=O)O)NC(=O)[C@H](Cc1ccccc1)NC(=O)[C@H](CC(C)C)NC(=O)CN)[C@@H](C)CC)[C@@H](C)CC)[C@@H](C)CC)[C@@H](C)CC)C(=O)N[C@@H](C)C(=O)N[C@@H](CCC(=O)O)C(=O)N[C@@H](CO)C(=O)N[C@@H](Cc1ccccc1)C(N)=O [IK-1] (H-GLFDIIKKIIKKIAESF-NH2) | 3 ± 0.76 | 3.4 ± 0.71 | 3.5 ± 0.74 | 8 | 16 | 16 | 16 | 8 | 8 | 16 | 32 | 8 | 8 µM | >128 | >128 |  |
| CC[C@H](C)[C@H](NC(=O)[C@H](CC(=O)O)NC(=O)[C@H](Cc1ccccc1)NC(=O)[C@H](CC(C)C)NC(=O)CN)C(=O)N[C@H](C(=O)N[C@@H](CCCCN)C(=O)N[C@@H](CCCCN)C(=O)N[C@@H](CC(C)C)C(=O)N[C@@H](C)C(=O)N[C@@H](CCCCN)C(=O)N[C@@H](CC(C)C)C(=O)N[C@@H](C)C(=O)N[C@@H](CCC(=O)O)C(=O)N[C@@H](CO)C(=O)N[C@@H](Cc1ccccc1)C(N)=O)[C@@H](C)CC [KLA-2] (H-GLFDIIKKLAKLAESF-NH2) | 3.55 | 5 ± 0.12 | 4.6 ± 0.12 | 16 | 16 | 4 | 4 | 2 | 2 | 16 | 16 |  | 2/2 μM | 4 | 4 | MBIC [7]: 2 to 16 µM |
| CC[C@H](C)[C@H](NC(=O)[C@H](CC(=O)O)NC(=O)[C@H](Cc1ccccc1)NC(=O)[C@H](CC(C)C)NC(=O)CN)C(=O)N[C@H](C(=O)N[C@@H](CCCCN)C(=O)N[C@@H](CCCCN)C(=O)N[C@@H](CC(C)C)C(=O)N[C@@H](C)C(=O)N[C@@H](CCC(=O)O)C(=O)N[C@@H](CO)C(=O)N[C@@H](Cc1ccccc1)C(N)=O)[C@@H](C)CC [KLA-1] (H-GLFDIIKKLAESF-NH2) | 17.6 ± 0.79 | 34.1 ± 0.21 | 29.4 ± 0.22 | 32 | 32 | 16 | 32 | 8 | 16 | 64 | 128 | 16 | 16 µM | 32 | 32 | Hemolysis (horse erythrocytes [8]): almost no hemolysis was detected |
| CC[C@H](C)[C@H](NC(=O)[C@H](CCCCN)NC(=O)[C@H](CCCCN)NC(=O)[C@@H](NC(=O)[C@@H](NC(=O)[C@H](CCCCN)NC(=O)[C@H](CCCCN)NC(=O)[C@@H](NC(=O)[C@@H](NC(=O)[C@H](CCCCN)NC(=O)[C@H](CCCCN)NC(=O)[C@@H](NC(=O)[C@@H](NC(=O)[C@H](CC(=O)O)NC(=O)[C@H](Cc1ccccc1)NC(=O)[C@H](CC(C)C)NC(=O)CN)[C@@H](C)CC)[C@@H](C)CC)[C@@H](C)CC)[C@@H](C)CC)[C@@H](C)CC)[C@@H](C)CC)C(=O)N[C@@H](C)C(=O)N[C@@H](CCC(=O)O)C(=O)N[C@@H](CO)C(=O)N[C@@H](Cc1ccccc1)C(N)=O [IK-2] (H-GLFDIIKKIIKKIIKKIAESF-NH2) | 3.2 ± 0.87 | 3.6 ± 0.18 | 3.7 ± 0.77 | >128 | >128 | >128 | >128 | 8 | 8 | 64 | 128 | >128 | >128 µM | 16 | 16 |  |
| CC[C@H](C)[C@H](NC(=O)[C@H](CCCCN)NC(=O)[C@H](CCCCN)NC(=O)[C@@H](NC(=O)[C@@H](NC(=O)[C@H](CCCCN)NC(=O)[C@H](CCCCN)NC(=O)[C@@H](NC(=O)[C@@H](NC(=O)[C@H](CCCCN)NC(=O)[C@H](CCCCN)NC(=O)[C@@H](NC(=O)[C@@H](NC(=O)[C@H](CC(=O)O)NC(=O)[C@H](Cc1ccccc1)NC(=O)[C@H](CC(C)C)NC(=O)CN)[C@@H](C)CC)[C@@H](C)CC)[C@@H](C)CC)[C@@H](C)CC)[C@@H](C)CC)[C@@H](C)CC)C(N)=O [IK-3] (H-GLFDIIKKIIKKIIKKI-NH2) | 3.4 ± 0.71 | 3.3 ± 0.63 | 2.99 | 16 | 32 | 16 | 32 | 4 | 4 | 16 | 16 | 16 | 16 µM | 8 | 8 |  |
| CC[C@H](C)[C@H](NC(=O)[C@H](CCCCN)NC(=O)[C@H](CCCCN)NC(=O)[C@@H](NC(=O)[C@@H](NC(=O)[C@H](CC(=O)O)NC(=O)[C@H](Cc1ccccc1)NC(=O)[C@H](CC(C)C)NC(=O)CN)[C@@H](C)CC)[C@@H](C)CC)C(=O)N[C@@H](C)C(=O)N[C@@H](CCC(=O)O)C(=O)N[C@@H](CO)C(=O)N[C@@H](Cc1ccccc1)C(N)=O [aurein 1.2] (H-GLFDIIKKIAESF-NH2) | 25.9 ± 0.79 | 38.4 | 26.9 | 32 | 32 | 16 | 16 | 16 | 16 | 64 | 128 | 8 | 8 µM | 64 | 64 | HC50 (horse erythrocytes [9]): around 30 μM; Hemolysis (horse erythrocytes [9]): 20.56%; MICs against Gram-positive bacteria (Gram-positive bacteria): 8 to 32 µM; concentration effective in prevention of biofilm formation (MBIC) [10]: 64 to 128 µM |
